Measurements from article PMC11566078, “Bactericidal activities and biochemical features of 16 antimicrobial peptides against bovine-mastitis causative pathogens” (Veterinary Research, 2024).
Like-named read-outs stand apart in the source and are kept apart here. Where no end group is shown, it is not given here.

How the values were obtained:
Type in all cases: cell-based
[1] = system: Staphylococcus aureus ATCC 6538; test: microbe, parasite or virus in culture
Method: (§1) The standard bacterial strains used for antimicrobial activity assays include Staphylococcus aureus ATCC (American Type Culture Collection, Manassas, VA, USA) 6538, Bacillus cereus ATCC 10876, Enterococcus faecalis ATCC 29212, Streptococcus […] 27956, Streptococcus dysgalactiae ATCC 27957, Streptococcus equi subsp. zooepidemicus ATCC 43079, Escherichia coli ATCC 25922, and Pseudomonas aeruginosa ATCC 27853. Most bacterial strains were cultured in LB medium except for E. faecalis and streptococci, which were cultivated in brain heart infusion (BHI) broth (BD Bioscience). […] Experiments were conducted in triplicate.

[2] = system: Enterococcus faecalis ATCC 29212; test: microbe, parasite or virus in culture
Method: as §1

[3] = system: Pseudomonas aeruginosa ATCC 27853; test: microbe, parasite or virus in culture
Method: as §1

[4] = system: eight standard bacterial strains
Method: as §1

[5] = system: Streptococcus equi subsp. zooepidemicus ATCC 43079; test: microbe, parasite or virus in culture
Method: as §1

[6] = system: Streptococcus agalactiae ATCC 27956; test: microbe, parasite or virus in culture
Method: as §1

[7] = system: Streptococcus dysgalactiae ATCC 27957; test: microbe, parasite or virus in culture
Method: as §1

[8] = system: Bacillus cereus ATCC 10876; test: microbe, parasite or virus in culture
Method: as §1

[9] = system: Escherichia coli ATCC 25922; test: microbe, parasite or virus in culture; details: MH broth, WST colourimetric, 1.5 × 10^5 cells/well, 37 °C 6 h + 2 h reagent, A450, triplicate
Method: as §1

[10] = system: Staphylococcus chromogenes; test: microbe, parasite or virus in culture; details: field isolate from milk; WST colourimetric, 37 °C 6 h; triplicate
Method: (§2) All plates were cultivated aerobically.
(§3) Experiments were conducted in triplicate.

[11] = system: Staphylococcus epidermidis; test: microbe, parasite or virus in culture; details: field isolate from milk; WST colourimetric, 37 °C 6 h; triplicate
Method: as §2, §3

Staphylococcus xylosus = test: microbe, parasite or virus in culture; details: field isolate from milk; WST colourimetric, 37 °C 6 h; triplicate
Method: as §2, §3

[12] = system: Staphylococcus haemolyticus; test: MIC against field isolate from milk with high SCC; details: field isolate from milk; WST colourimetric, 37 °C 6 h; triplicate
Method: as §2, §3

[13] = only some Gram-negative and Gram-positive strains, range stated for the group of peptides
[14] = ATCC 43079, BHI broth, WST colourimetric, 37 °C 6 h, triplicate
[15] = ATCC 6538, MH broth, WST colourimetric, 37 °C 6 h, triplicate
[16] = ATCC 27956, BHI broth, WST colourimetric, 37 °C 6 h, triplicate
[17] = ATCC 27957, BHI broth, WST colourimetric, 37 °C 6 h, triplicate
[18] = ATCC 10876, MH broth, WST colourimetric, 37 °C 6 h, triplicate
[19] = ATCC 27853, CAMHB, WST colourimetric, 37 °C 6 h, triplicate
[20] = ATCC 29212, BHI broth, WST colourimetric, 37 °C 6 h, triplicate

Row | Substance | Minimal inhibitory concentration, Staphylococcus aureus ([1]; ATCC 6538, 6 h) | Minimal inhibitory concentration, Enterococcus faecalis ([2]; ATCC 29212, 6 h) | Minimal inhibitory concentration, Pseudomonas aeruginosa ([3]; ATCC 27853, 6 h) | MICs, range over the strains against which active [4, 13] [µM] | Minimal inhibitory concentration, Streptococcus equi subsp. zooepidemicus ([5]; ATCC 43079, 6 h) | Minimal inhibitory concentration, Streptococcus agalactiae ([6]; ATCC 27956, 6 h) | Minimal inhibitory concentration, Streptococcus dysgalactiae ([7]; ATCC 27957, 6 h) | Minimal inhibitory concentration, Bacillus cereus ([8]; ATCC 10876, 6 h) | also measured
1 | VKRTKRGARRGLTKVLKKIFGSIVKKAVSKGV [ΔModoCath1] | 11 (3.2) μg/mL | 2.9 µM | 2.9 µM | 0.7 to 18.8 | – | – | – | – | –
2 | KRRGSVTTRYQFLMIHLLRPKKLFA [EA-CATH1] | 41 (13.4) μg/mL | 30 (9.8) μg/mL | 19 (6.1) μg/mL | 0.7 to 18.8 | > 40 (13.1) μg/mL | > 40 (13.1) μg/mL | > 40 (13.1) μg/mL | > 40 (13.1) μg/mL | –
3 | Nisin | – | – | – | – | – | – | – | – | Minimal inhibitory concentration, Streptococcus equi subsp. zooepidemicus [5, 14]: 4 (1.2) μg/mL; Minimal inhibitory concentration, Escherichia coli [9]: > 64 (19.2) μg/mL; Minimal inhibitory concentration, Staphylococcus aureus [1, 15]: 2 (0.60) μg/mL; Minimal inhibitory concentration, Streptococcus agalactiae [6, 16]: 2 (0.60) μg/mL; Minimal inhibitory concentration, Streptococcus dysgalactiae [7, 17]: 4 (1.2) μg/mL; Minimal inhibitory concentration, Bacillus cereus [8, 18]: 4 (1.2) μg/mL; Minimal inhibitory concentration, Pseudomonas aeruginosa [3, 19]: > 64 (19.2) μg/mL; MICs, range over all Gram-positive strains in the panel ([4]; all Gram-positive strains of the standard panel): 2 to 16 µg/mL
4 | TRSRWRRFIRGAGRFARRYGWRIA [ΔPb-CATH4] | 4 (1.3) μg/mL | > 40 (13.1) μg/mL | 11 (3.5) μg/mL | – | 20 (6.6) μg/mL | > 40 (13.1) μg/mL | > 40 (13.1) μg/mL | > 40 (13.1) μg/mL | MICs, range over the strains against which active [4]: 0.7 to 18.8 µM
5 | VRRSKRGIKVPSFVKKVLKDVVSESIS [ΔModoCath6] | > 40 (13.2) μg/mL | > 40 (13.2) μg/mL | > 40 (13.2) μg/mL | – | > 40 (13.2) μg/mL | > 40 (13.2) μg/mL | > 40 (13.2) μg/mL | > 40 (13.2) μg/mL | –
6 | GRFRRLRKKTRKRLKKIGKVLKWIPPIVGSIPLGCG [PMAP-36] | 9 (2.2) μg/mL | > 40 (9.6) μg/mL | 8 (1.9) μg/mL | – | > 40 (9.6) μg/mL | > 40 (9.6) μg/mL | > 40 (9.6) μg/mL | 28 (6.7) μg/mL | –
7 | Lysostaphin: bacteriocin produced by Staphylococcus simulans, purchased (Sigma Aldrich) | – | – | – | – | – | – | – | – | Minimal inhibitory concentration, Staphylococcus chromogenes [10]: 0.25 (9.3) μg/mL; Minimal inhibitory concentration, Staphylococcus epidermidis [11]: 1 (37.3) μg/mL; Minimal inhibitory concentration, Staphylococcus xylosus (Staphylococcus xylosus): 0.5 (18.7) μg/mL; Minimal inhibitory concentration, Staphylococcus haemolyticus [12]: 1 (37.3) μg/mL; Minimal inhibitory concentration, Streptococcus equi subsp. zooepidemicus [5, 14]: > 160 (29.7) μg/mL; Minimal inhibitory concentration, Escherichia coli [9]: > 160 (29.7) μg/mL; Minimal inhibitory concentration, Staphylococcus aureus [1, 15]: 1 µg/mL; Minimal inhibitory concentration, Streptococcus agalactiae [6, 16]: > 160 (29.7) μg/mL; Minimal inhibitory concentration, Streptococcus dysgalactiae [7, 17]: > 160 (29.7) μg/mL; Minimal inhibitory concentration, Enterococcus faecalis [2, 20]: > 160 (29.7) μg/mL; Minimal inhibitory concentration, Bacillus cereus [8, 18]: > 160 (29.7) μg/mL; Minimal inhibitory concentration, Pseudomonas aeruginosa [3, 19]: > 160 (29.7) μg/mL
8 | ILGRLRDLLRRGGRKIGQGLERIGQRIQGFFSNREPMEES [HA-CATH] | 26 (5.6) μg/mL | > 40 (8.6) μg/mL | > 40 (8.6) μg/mL | 0.7 to 18.8 | > 40 (8.6) μg/mL | > 40 (8.6) μg/mL | > 40 (8.6) μg/mL | 25 (5.4) μg/mL | –
9 | MRGGRLCYCRRRFCVCVGR (disulfide (positions not given here)) [PG-1, pig cathelicidin produced recombinantly with a GFP-scaffold system, CNBr cleaved, disulfide bonds installed] | – | – | – | 0.7 to 18.8 | – | – | – | – | Minimal inhibitory concentration, Streptococcus equi subsp. zooepidemicus [5, 14]: > 40 (17.5) μg/mL; Minimal inhibitory concentration, Escherichia coli [9]: 23 (10.0) μg/mL; Minimal inhibitory concentration, Streptococcus agalactiae [6, 16]: > 40 (17.5) μg/mL; Minimal inhibitory concentration, Streptococcus dysgalactiae [7, 17]: 32 (14.0) μg/mL; Minimal inhibitory concentration, Enterococcus faecalis [2, 20]: > 40 (17.5) μg/mL; Minimal inhibitory concentration, Bacillus cereus [8, 18]: > 40 (17.5) μg/mL; Minimal inhibitory concentration, Pseudomonas aeruginosa [3, 19]: 20 (8.7) μg/mL
10 | RRRPRPPYLPRPRPPPFFPPRLPPRIPPGFPPRFP [PR-35] | > 40 (9.5) μg/mL | > 40 (9.5) μg/mL | > 40 (9.5) μg/mL | – | > 40 (9.5) μg/mL | > 40 (9.5) μg/mL | > 40 (9.5) μg/mL | > 40 (9.5) μg/mL | –
11 | GGLRSLGRKILRAWKKYGPIIVPIIRIG [BMAP-28] | 5 (1.6) μg/mL | 15 (4.8) μg/mL | 9 (2.9) μg/mL | 0.7 to 18.8 | > 40 (12.6) μg/mL | > 40 (12.6) μg/mL | > 40 (12.6) μg/mL | 7 (2.2) μg/mL | –
12 | SKFFRKARKKLGKGLQKIKNVLRKY [ΔHg-CATH] | > 40 (13.2) μg/mL | > 40 (13.2) μg/mL | 5 (1.7) μg/mL | – | 15 (4.9) μg/mL | > 40 (13.2) μg/mL | 15 (4.9) μg/mL | > 40 (13.2) μg/mL | MICs, range over the strains against which active [4]: 0.7 to 18.8 µM
13 | WYQLIRTFGNLIHQKYRKLLEAYRKLRD [ΔModoCath5] | 6 (1.7) μg/mL | 10 (2.8) μg/mL | > 40 (11.0) μg/mL | – | > 40 (11.0) μg/mL | > 40 (11.0) μg/mL | > 40 (11.0) μg/mL | 26 (7.3) μg/mL | –
